How the values were obtained:
E. feacium = assay: Minimum inhibitory concentration (MIC) in vitro, agar dilution method; format: cell-based; conditions: hydrate
Outline: (§1)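 CLSI agar dilution; clinical isolates, Sichuan/Beijing, Mar 2007–May 2008. Stock in DMSO, diluted with sterile water. Read-out: MIC per strain, summarised as MIC50/MIC90/range.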

[1] = system: Staphylococcus aureus MRSA; assay: as above; format: cell-based; conditions: hydrate
Outline: as §1

S. epidermidis MRSE = assay: as above; format: cell-based; conditions: hydrate
Outline: as §1

E. feacalis = assay: as above; format: cell-based; conditions: hydrate
Outline: as §1

S. epidermidis MSSE = assay: as above; format: cell-based; conditions: hydrate
Outline: as §1

[2] = system: Staphylococcus aureus MSSA; assay: as above; format: cell-based; conditions: hydrate
Outline: as §1

[3] = Stability under high temperature and high humidity (relative humidity 75%, 40° C.); format: physicochemical; conditions: for Related substances (%): by HPLC; for Related substances (%) / TGA (%): hydrate; for TGA (%): water content by TGA
Experimental: In order to further evaluate the effect of temperature, humidity and light on the quality of the crystalline compounds of the present disclosure, the hydrates were placed in a dessicator with a relative humidity of 75% and at a constant temperature of 40° C. The samples were then collected at 1, 2, 3, and 6 months. Results are shown in Tables 10-14, wherein the “related substances” mean all of the ingredients in a sample except the active material. The content of the related substances in a sample was measure by HPLC in accordance to the Chinese Pharmacopeia (2005 edition, Part II, Appendix V D).

Staphylococcus aureus = assay: Minimum inhibitory concentration (MIC) in vitro, agar dilution method, quality control strain; format: cell-based; conditions: strain S. AT C C25923 (Table 7 No. 1); hydrate
Outline: as §1

[4] = E. feacium (5 strains), clinically isolated
[5] = S. MRSA (10 strains), clinically isolated
[6] = S. ep MRSE (10 strains), clinically isolated
[7] = E. feacalis (5 strains), clinically isolated
[8] = S. ep MSSE (10 strains), clinically isolated
[9] = S. MSSA (11 strains), clinically isolated

CC(=O)NC[C@H]1CN(c2ccc(N3CCN(c4ccccc4)CC3)c(F)c2)C(=O)O1 [2/7 hydrate, (S)—[N-3-(3′-fluoro-4′-(4″-phenylpiperazinyl))phenyl-2-oxo-5-oxazolidinyl]methyl acetamide 2/7 hydrate]
MIC50 (E. feacium; [4]): 1 µg/mL | MIC90 (E. feacium; [4]): 1 µg/mL | MICrange (E. feacium; [4]): 0.5 to 1 µg/mL | MIC (E. feacium; strain Efm 98 (Table 8 No. 21)): 0.5 µg/mL | MIC (E. feacium; strain Efm 171 (Table 8 No. 25)): 1 µg/mL | MIC (E. feacium; strain Efm 197 (Table 8 No. 22)): 0.5 µg/mL | MIC (E. feacium; strain Efm N3 (Table 8 No. 23)): 1 µg/mL | MIC (E. feacium; strain Efm N4 (Table 8 No. 24)): 1 µg/mL | MIC50 [1, 5]: 0.5 µg/mL | MIC90 [1, 5]: 0.5 µg/mL | MICrange [1, 5]: 0.5 to 1 µg/mL | MIC ([1]; strain S. MRSA 29 (Table 7 No. 15)): 0.5 µg/mL | MIC ([1]; strain S. MRSA 101 (Table 7 No. 14)): 1 µg/mL | MIC ([1]; strain S. MRSA 201 (Table 7 No. 13)): 0.5 µg/mL | MIC ([1]; strain S. MRSA B27 (Table 7 No. 21)): 0.5 µg/mL | MIC ([1]; strain S. MRSA B105 (Table 7 No. 17)): 0.5 µg/mL | MIC ([1]; strain S. MRSA B143 (Table 7 No. 19)): 0.5 µg/mL | MIC ([1]; strain S. MRSA B151 (Table 7 No. 20)): 0.5 µg/mL | MIC ([1]; strain S. MRSA B164 (Table 7 No. 16)): 0.5 µg/mL | MIC ([1]; strain S. MRSA B199 (Table 7 No. 22)): 0.5 µg/mL | MIC ([1]; strain S. MRSA B617 (Table 7 No. 18)): 0.5 µg/mL | MIC50 (S. epidermidis MRSE; [6]): 0.5 µg/mL | MIC90 (S. epidermidis MRSE; [6]): 0.5 µg/mL | MICrange (S. epidermidis MRSE; [6]): 0.25 to 0.5 µg/mL | MIC (S. epidermidis MRSE; strain S. ep MRSE4 (Table 8 No. 9)): 0.25 µg/mL | MIC (S. epidermidis MRSE; strain S. ep MRSE20 (Table 8 No. 6)): 0.5 µg/mL | MIC (S. epidermidis MRSE; strain S. ep MRSE87 (Table 8 No. 13)): 0.5 µg/mL | MIC (S. epidermidis MRSE; strain S. ep MRSE90 (Table 8 No. 10)): 0.5 µg/mL | MIC (S. epidermidis MRSE; strain S. ep MRSE101 (Table 8 No. 7)): 0.25 µg/mL | MIC (S. epidermidis MRSE; strain S. ep MRSE105 (Table 8 No. 11)): 0.5 µg/mL | MIC (S. epidermidis MRSE; strain S. ep MRSE140 (Table 8 No. 14)): 0.5 µg/mL | MIC (S. epidermidis MRSE; strain S. ep MRSE142 (Table 8 No. 12)): 0.5 µg/mL | MIC (S. epidermidis MRSE; strain S. ep MRSE210 (Table 8 No. 15)): 0.5 µg/mL | MIC (S. epidermidis MRSE; strain S. ep MRSE211 (Table 8 No. 8)): 0.5 µg/mL | MIC50 (E. feacalis; [7]): 0.25 µg/mL | MIC90 (E. feacalis; [7]): 0.5 µg/mL | MICrange (E. feacalis; [7]): 0.125 to 0.5 µg/mL | MIC (E. feacalis; strain Efa 116 (Table 8 No. 16)): 0.5 µg/mL | MIC (E. feacalis; strain Efa 907 (Table 8 No. 19)): 0.25 µg/mL | MIC (E. feacalis; strain Efa 3006 (Table 8 No. 18)): 0.25 µg/mL | MIC (E. feacalis; strain Efa 33748 (Table 8 No. 17)): 0.5 µg/mL | MIC50 (S. epidermidis MSSE; [8]): 0.5 µg/mL | MIC90 (S. epidermidis MSSE; [8]): 0.5 µg/mL | MICrange (S. epidermidis MSSE; [8]): 0.25 to 0.5 µg/mL | MIC (S. epidermidis MSSE; strain S. ep MSSE87 (Table 7 No. 23)): 0.125 µg/mL | MIC (S. epidermidis MSSE; strain S. ep MSSE88 (Table 8 No. 5)): 0.5 µg/mL | MIC (S. epidermidis MSSE; strain S. ep MSSE113 (Table 7 No. 24)): 0.25 µg/mL | MIC (S. epidermidis MSSE; strain S. ep MSSE116 (Table 7 No. 25)): 0.25 µg/mL | MIC (S. epidermidis MSSE; strain S. ep MSSE118 (Table 8 No. 2)): 0.5 µg/mL | MIC (S. epidermidis MSSE; strain S. ep MSSE119 (Table 7 No. 27)): 0.25 µg/mL | MIC (S. epidermidis MSSE; strain S. ep MSSE137 (Table 8 No. 4)): 0.5 µg/mL | MIC (S. epidermidis MSSE; strain S. ep MSSE140 (Table 8 No. 3)): 0.5 µg/mL | MIC (S. epidermidis MSSE; strain S. ep MSSE142 (Table 7 No. 26)): 0.5 µg/mL | MIC (S. epidermidis MSSE; strain S. ep MSSE153 (Table 8 No. 1)): 0.5 µg/mL | MIC50 [2, 9]: 0.5 µg/mL | MIC90 [2, 9]: 0.5 µg/mL | MICrange [2, 9]: 0.5 to 1 µg/mL | MIC ([2]; strain S. MSSA 123 (Table 7 No. 3)): 0.5 µg/mL | MIC ([2]; strain S. MSSA 187 (Table 7 No. 7)): 0.5 µg/mL | MIC ([2]; strain S. MSSA 195 (Table 7 No. 6)): 1 µg/mL | MIC ([2]; strain S. MSSA 195 (Table 7 No. 12)): 0.5 µg/mL | MIC ([2]; strain S. MSSA 201 (Table 7 No. 11)): 0.5 µg/mL | MIC ([2]; strain S. MSSA 232 (Table 7 No. 2)): 0.5 µg/mL | MIC ([2]; strain S. MSSA 275 (Table 7 No. 10)): 0.5 µg/mL | MIC ([2]; strain S. MSSA 466 (Table 7 No. 8)): 0.5 µg/mL | MIC ([2]; strain S. MSSA 519 (Table 7 No. 9)): 0.5 µg/mL | MIC ([2]; strain S. MSSA 520 (Table 7 No. 4)): 0.25 µg/mL | MIC ([2]; strain S. MSSA 580 (Table 7 No. 5)): 0.25 µg/mL | Characters ([3]; 0 month): White powder | Characters ([3]; 1 month): White powder | Characters ([3]; 2 months): White powder | Characters ([3]; 3 months): White powder | Characters ([3]; 6 months): White powder | Related substances (%) ([3]; 0 month): 0.91% | Related substances (%) ([3]; 1 month): 0.89% | Related substances (%) ([3]; 2 months): 0.90% | Related substances (%) ([3]; 3 months): 0.91% | Related substances (%) ([3]; 6 months): 0.95% | TGA (%) ([3]; 0 month): 1.20% | TGA (%) ([3]; 1 month): 1.21% | TGA (%) ([3]; 2 months): 1.19% | TGA (%) ([3]; 3 months): 1.23% | TGA (%) ([3]; 6 months): 1.21% | MIC (Staphylococcus aureus): 0.5 µg/mL

From US8916567B2, “Certain crystalline hydrates, pharmaceutical compositions thereof and methods for preparation and use thereof” (Universal Technology Alliance, Inc., priority 2009, dated 2014)
